Target: LasB (Pseudomonas aeruginosa (strain ATCC 15692 / DSM 22644 / CIP 104116 / JCM 14847 / LMG 12228 / 1C / PRS 101 / PAO1), UniProt P14756)
Experiment: In vitro LasB activity assay (fluorogenic substrate)
Format: biochemical
Details: LasB 0.3 nM, substrate 150 μM, mean ± SD
Experimental: The LasB activity assay was performed as described previously (Nishino N, Powers J C. Pseudomonas aeruginosa elastase. Development of a new substrate, inhibitors, and an affinity ligand. J Biol Chem. 1980 Apr. 25; 255(8):3482-6) using the fluorogenic substrate 2-Aminobenzoyl-L-Alanyl-Glycyl-L-Leucyl-L-Alanyl-para-Nitro-Benzyl-Amide, purchased from Peptides International (Louisville, KY, USA) and vivitide, LLC (Gardner, MA, USA).
Fluorescence intensity was measured for 60 min at 37° C. in black 384-well microtiter plates (Greiner BioOne, Kremsmünster, Austria) using a CLARIOstar microplate reader (BMG Labtech, Ortenberg, Germany) with an excitation wavelength of […] and an emission wavelength of 415±20 nm. The assay was performed in a final volume of 50 μL of assay buffer (50 mM Tris, pH 7.2, 2.5 mM CaCl2), 0.075% Pluronic F-127, 5% DMSO) containing LasB at a final concentration of […] 0.3 nM and the substrate at 150 μM. Before substrate addition, compounds were preincubated with the enzyme at 37° C. for 15 min. Experiments were performed in duplicates and repeated for at least two times. Blank controls without enzyme were performed. After blank subtraction, the slope of samples containing inhibitors (v) was divided by the slope of a simultaneously started uninhibited enzymatic reaction (v0). IC50 values were determined with nonlinear regression using GraphPad Prism 5 (Graph Pad Software, San Diego, CA, USA) and are given as mean values ±standard deviation (SD). The slope factor was constrained to 1.

Chain of LasB (P14756 198-498): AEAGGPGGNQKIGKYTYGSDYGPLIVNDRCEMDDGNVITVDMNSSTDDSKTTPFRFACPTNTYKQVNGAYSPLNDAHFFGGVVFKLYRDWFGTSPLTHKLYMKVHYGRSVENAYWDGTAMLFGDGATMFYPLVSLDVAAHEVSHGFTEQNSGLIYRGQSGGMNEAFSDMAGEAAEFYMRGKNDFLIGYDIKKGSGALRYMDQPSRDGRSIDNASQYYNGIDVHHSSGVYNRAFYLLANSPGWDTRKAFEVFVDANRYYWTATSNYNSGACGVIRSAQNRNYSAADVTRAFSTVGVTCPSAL

Compound	IC50
CC(C)CC(C(=O)NO)C(=O)Nc1ccc(Cn2cc(CNC(=O)c3ccc(I)cc3)nn2)cc1 (stereo not shown) [Compound 132, N-[[1-[[4-[[2-(Hydroxycarbamoyl)-4-methyl-pentanoyl]amino]phenyl]methyl]triazol-4-yl]methyl]-4-iodo-benzamide]	22.8 ± 0.1 nM
CC(C)CC(C(=O)NO)C(=O)Nc1ccc(Cn2cc(CNC(=O)OC(C)(C)C)nn2)cc1 (stereo not shown) [Compound 133, Tert-butyl N-[[1-[[4-[[2-(hydroxycarbamoyl)-4-methyl-pentanoyl]amino]phenyl]methyl]triazol-4-yl]methyl]carbamate]	9.8 ± 0.4 nM
CC(C)CC(C(=O)NO)C(=O)Nc1ccc(Cn2cc(CNc3ccc(I)cc3)nn2)cc1 (stereo not shown) [Compound 134, 2-(Hydroxycarbamoyl)-N-[4-[[4-[(4-iodoanilino)methyl]triazol-1-yl]methyl]phenyl]-4-methyl-pentanamide]	8.4 ± 0.5 nM
CC(C)CC(C(=O)NO)C(=O)Nc1ccc(Cn2cc(COc3ccc(Cl)cc3)nn2)cc1 (stereo not shown) [Compound 135, N-[4-[[4-[(4-Chlorophenoxy)methyl]triazol-1-yl]methyl]phenyl]-2-(hydroxycarbamoyl)-4-methyl-pentanamide]	9.8 ± 0.3 nM
CC(C)CC(C(=O)NO)C(=O)Nc1ccc(Cn2cc(Cc3ccc(Cl)cc3)nn2)cc1 (stereo not shown) [Compound 137, N-[4-[[4-[(4-Chlorophenyl)methyl]triazol-1-yl]methyl]phenyl]-2-(hydroxycarbamoyl)-4-methyl-pentanamide]	16.9 ± 1.3 nM
CC(C)CC(C(=O)NO)C(=O)Nc1ccc(Cn2cc(-c3ccc(I)cc3)nn2)cc1 (stereo not shown) [Compound 138, 2-(Hydroxycarbamoyl)-N-[4-[[4-(4-iodophenyl)triazol-1-yl]methyl]phenyl]-4-methyl-pentanamide]	37.8 ± 2.9 nM
CC(C)CC(C(=O)NO)C(=O)Nc1ccc(Cn2cc(CN3C(=O)c4ccccc4S3(=O)=O)nn2)cc1 (stereo not shown) [Compound 139, 2-(Hydroxycarbamoyl)-4-methyl-N-[4-[[4-[(1,1,3-trioxo-1,2-benzothiazol-2-yl)methyl]triazol-1-yl]methyl]phenyl]pentanamide]	19.3 ± 0.6 nM
CC(C)CC(C(=O)NO)C(=O)Nc1ccc(Cn2cc(CN)nn2)cc1 (stereo not shown) [Compound 140, N-[4-[[4-(Aminomethyl)triazol-1-yl]methyl]phenyl]-2-(hydroxycarbamoyl)-4-methyl-pentanamide]	55.9 ± 2.3 nM
CC(C)CC(C(=O)NO)C(=O)Nc1ccc(Cn2cc(CNS(=O)(=O)c3ccccc3Cl)nn2)cc1 (stereo not shown) [Compound 163, N-[4-[[4-[[(2-Chlorophenyl)sulfonylamino]methyl]triazol-1-yl]methyl]phenyl]-2-(hydroxycarbamoyl)-4-methyl-pentanamide]	4.3 ± 0.1 nM
CC(C)CC(C(=O)NO)C(=O)Nc1ccc(Cn2cc(CNS(=O)(=O)c3cccc(Cl)c3)nn2)cc1 (stereo not shown) [Compound 164, N-[4-[[4-[[(3-Chlorophenyl)sulfonylamino]methyl]triazol-1-yl]methyl]phenyl]-2-(hydroxycarbamoyl)-4-methyl-pentanamide]	2.4 ± 0.1 nM
CC(C)CC(C(=O)NO)C(=O)Nc1ccc(Cn2cc(CNS(=O)(=O)Cc3ccc(Cl)cc3)nn2)cc1 (stereo not shown) [Compound 166, N-[4-[[4-[[(4-Chlorophenyl)methylsulfonylamino]methyl]triazol-1-yl]methyl]phenyl]-2-(hydroxycarbamoyl)-4-methyl-pentanamide]	5.2 ± 0.3 nM
CC(C)CC(C(=O)NO)C(=O)Nc1ccc(Cn2cc(CNS(=O)(=O)c3ccccc3)nn2)cc1 (stereo not shown) [Compound 167, N-[4-[[4-(Benzenesulfonamidomethyl)triazol-1-yl]methyl]phenyl]-2-(hydroxycarbamoyl)-4-methyl-pentanamide]	5.5 ± 0.3 nM
CC(C)CC(C(=O)NO)C(=O)Nc1ccc(Cn2cc(CNS(=O)(=O)C3CCCCC3)nn2)cc1 (stereo not shown) [Compound 168, N-[4-[[4-[(Cyclohexylsulfonylamino)methyl]triazol-1-yl]methyl]phenyl]-2-(hydroxycarbamoyl)-4-methyl-pentanamide]	2.7 ± 0.2 nM
O=C(NO)C(Cc1ccccc1)C(=O)Nc1ccc(Cn2cc(CNS(=O)(=O)c3ccc(I)cc3)nn2)cc1 (stereo not shown) [Compound 179, 2-Benzyl-3-(hydroxyamino)-N-[4-[[4-[[(4-iodophenyl)sulfonylamino]methyl]triazol-1-yl]methyl]phenyl]-3-oxo-propanamide]	1 ± 0.6 nM
O=C(NO)C(CC1CC1)C(=O)Nc1ccc(Cn2cc(CNS(=O)(=O)c3ccc(I)cc3)nn2)cc1 (stereo not shown) [Compound 183, 2-(Cyclopropylmethyl)-3-(hydroxyamino)-N-[4-[[4-[[(4-iodophenyl)sulfonylamino]methyl]triazol-1-yl]methyl]phenyl]-3-oxo-propanamide]	9.9 ± 0.3 nM
CC(C)CC(C(=O)NO)C(=O)Nc1ccc(Cn2nncc2CNC(=O)OC(C)(C)C)cc1 (stereo not shown) [Compound 185, tert-butyl N-[[3-[[4-[[2-(hydroxycarbamoyl)-4-methyl-pentanoyl]amino]phenyl]methyl]triazol-4-yl]methyl]carbamate]	6.5 ± 0.2 nM
CC(C)CC(C(=O)NO)C(=O)Nc1ccc(Cn2nncc2CNS(=O)(=O)c2ccc(I)cc2)cc1 (stereo not shown) [Compound 190, 2-(Hydroxycarbamoyl)-N-[4-[[5-[[(4-iodophenyl)sulfonylamino]methyl]triazol-1-yl]methyl]phenyl]-4-methyl-pentanamide]	7.8 ± 0.1 nM
CC(C)CC(C(=O)NO)C(=O)Nc1ccc(Cn2nncc2CNS(=O)(=O)c2ccc(F)cc2)cc1 (stereo not shown) [Compound 191, N-[4-[[5-[[(4-Fluorophenyl)sulfonylamino]methyl]triazol-1-yl]methyl]phenyl]-2-(hydroxycarbamoyl)-4-methyl-pentanamide]	7.9 ± 0.1 nM
CC(C)CC(C(=O)NO)C(=O)Nc1ccc(Cn2nncc2CNS(=O)(=O)CC(C)C)cc1 (stereo not shown) [Compound 192, 2-(Hydroxycarbamoyl)-N-[4-[[5-[(isobutylsulfonylamino)methyl]triazol-1-yl]methyl]phenyl]-4-methyl-pentanamide]	6.8 ± 0.1 nM
CC(=O)c1ccc(S(=O)(=O)NCc2cn(Cc3ccc(NC(=O)C(CC(C)C)C(=O)NO)cc3)nn2)cc1 (stereo not shown) [Compound 203, N-[4-[[4-[[(4-acetylphenyl)sulfonylamino]methyl]triazol-1-yl]methyl]phenyl]-2-(hydroxycarbamoyl)-4-methyl-pentanamide]	7.9 ± 0.2 nM
COC(=O)c1ccc(S(=O)(=O)NCc2cn(Cc3ccc(NC(=O)C(CC(C)C)C(=O)NO)cc3)nn2)cc1 (stereo not shown) [Compound 204, methyl 4-[[1-[[4-[[2-(hydroxycarbamoyl)-4-methyl-pentanoyl]amino]phenyl]methyl]triazol-4-yl]methylsulfamoyl]benzoate]	13 ± 0.4 nM
COCCOc1ccc(S(=O)(=O)NCc2cn(Cc3ccc(NC(=O)C(CC(C)C)C(=O)NO)cc3)nn2)cc1 (stereo not shown) [Compound 205, 2-(hydroxycarbamoyl)-N-[4-[[4-[[[4-(2-methoxyethoxy)phenyl]sulfonylamino]methyl]triazol-1-yl]methyl]phenyl]-4-methyl-pentanamide]	29.5 ± 0.7 nM
CC(C)CC(C(=O)NO)C(=O)Nc1ccc(Cn2cc(CNS(=O)(=O)c3ccc(OC(C)C)cc3)nn2)cc1 (stereo not shown) [Compound 206, 2-(hydroxycarbamoyl)-N-[4-[[4-[[(4-isopropoxyphenyl)sulfonylamino]methyl]triazol-1-yl]methyl]phenyl]-4-methyl-pentanamide]	7.8 ± 0.3 nM
CC(C)CC(C(=O)NO)C(=O)Nc1ccc(Cn2cc(CNS(=O)(=O)c3ccc(C(C)C)cc3)nn2)cc1 (stereo not shown) [Compound 207, 2-(hydroxycarbamoyl)-N-[4-[[4-[[(4-isopropylphenyl)sulfonylamino]methyl]triazol-1-yl]methyl]phenyl]-4-methyl-pentanamide]	3.1 ± 0.1 nM
CC(C)CC(C(=O)NO)C(=O)Nc1ccc(Cn2cc(CNS(=O)(=O)c3ccc(NC(=O)OC(C)(C)C)cc3)nn2)cc1 (stereo not shown) [Compound 208, tert-butyl N-[4-[[1-[[4-[[2-(hydroxycarbamoyl)-4-methyl-pentanoyl]amino]phenyl]methyl]triazol-4-yl]methylsulfamoyl]phenyl]carbamate]	4.2 ± 0.2 nM
CC(C)CC(C(=O)NO)C(=O)Nc1ccc(Cn2cc(CNS(=O)(=O)c3ccc(N)cc3)nn2)cc1 (stereo not shown) [Compound 210, N-[4-[[4-[[(4-aminophenyl)sulfonylamino]methyl]triazol-1-yl]methyl]phenyl]-2-(hydroxycarbamoyl)-4-methyl-pentanamide]	7.7 ± 0.2 nM
CC(C)CCC(C(=O)NO)C(=O)Nc1ccc(Cn2cc(CNS(=O)(=O)c3ccc(I)cc3)nn2)cc1 (stereo not shown) [Compound 215, 2-(hydroxycarbamoyl)-N-[4-[[4-[[(4-iodophenyl)sulfonylamino]methyl]triazol-1-yl]methyl]phenyl]-5-methyl-hexanamide]	48.5 ± 1.4 nM
CC(C(=O)NO)C(=O)Nc1ccc(Cn2cc(CNS(=O)(=O)c3ccc(I)cc3)nn2)cc1 (stereo not shown) [Compound 217, 3-(hydroxyamino)-N-[4-[[4-[[(4-iodophenyl)sulfonylamino]methyl]triazol-1-yl]methyl]phenyl]-2-methyl-3-oxo-propanamide]	278 ± 9.7 nM

From patent publication US20250170104A1, “INHIBITORS OF PSEUDOMONAS AERUGINOSA VIRULENCE FACTOR Lasß” (priority 2022, published 2025)
